Source: patent US20080103209A1, “Compounds And Methods For Treating Non-Inflammatory Pain Using Ppar Alpha Agonists” (The Regents of The University of California, priority 2004, published 2008)

Assays:
Format in all cases: in vivo, mouse
mice [1] = assay: TPA-induced ear edema (irritant contact dermatitis)
Excerpt: In addition to rapid-onset analgesia, PEA also exerts prolonged anti-inflammatory effects [Benvenuti, et al., Boll Soc It Biol Sper 44, 809-813 (1968); Lambert, et al., Curr Med. Chem. 9, 663-74 (2002)], which are associated with the down-regulation of pro-inflammatory proteins such as nitric oxide synthase (NOS) [Costa, et al., Br J Pharmacol 137, 413-20. (2002)]. Two models of acute inflammation were used to examine whether such effects are mediated through PPARα. First, paw edema was induced in C57B16J wild-type and PPARα^−/− mice by local injection of the irritant, carrageenan [Cirino, et al., Eur J Pharmacol 166, 505-10 (1989)]. […] Next, ear edema was produced in CD1 mice by topical administration of the phorbol ester, 12-O-tetradecanoylphorbol-13-acetate (TPA) [Sheu, et al., J Invest Dermatol., 94-101. (2002)]. […] In a parallel set of experiments, the effects of PEA (20 μg) on TPA-induced edema were tested in C57B16J wild-type and PPARα^−/− mice. […] Together, these findings indicate that PEA reduces acute nociception and inflammation through activation of PPARα.
As previous described procedure [Sheu, et al., J Invest Dermatol., 94-101. (2002)], 12-O-tetradecanoylphorbol-13-acetate (TPA) was dissolved in acetone (0.03%, w v^−1) and topically delivered with a pipette to the inner and outer surfaces (10 μl/side) of mice ears. Experimental agents were dissolved in acetone and delivered topically (20 μl/side) 45 minutes and 4 hours after TPA. 18 hours after TPA administration, the mice were euthanized with CO2 and the ears punched (diameter=2 mm) four times. The 4 excised punches of skin were combined and weighed to assess edema.

C57BL6/J mice = assay: TPA-induced edema of abdominal skin, topical administration; conditions: PEA 450 μg, GW7647 755 μg
Swiss mice = assay: Prolonged carrageenan-induced paw oedema, hyperalgesia and oedema; conditions: 30 mg-kg^−1 s.c. on the third day of carrageenan treatment
Excerpt: The ability of PPARα agonists to attenuate hyperalgesia was further explored in two mouse models of subchronic inflammation: (i) experimental arthritis elicited by intradermal injection of complete Freund's adjuvant (CFA) into the base of the tail (Whiteley et al., Current Protocols in Pharmacology, 2, 5.5.1-5.5.5. (2001)); and (ii) prolonged oedema induced by repeated carrageenan injections into the paw (Otterness et al., Methods Enzymol, 162, 320 (1988)). […] Both drugs, but not their vehicle, suppressed mechanical (FIG. 7A, 7B) and thermal (data not shown) sensitivity.
Carrageenan-induced paw oedema. An inflammatory response was initiated in the left hindpaw of male Swiss mice by injecting %-carrageenan (1% weight-vol^−1 in sterile saline, 50 μl) using a 27-gauge needle, and maintained it by repeating the injections on day 3, 7 and 14 after the first administration. Paw oedema was measured using a mouse plethysmometer (Ugo Basile, Italy) or by weighing the excised paw.
Mechanical hyperalgesia was determined by measuring paw withdrawal thresholds to an increasing pressure onto the dorsal surface of the paw using an analgesimeter (Ugo Basile, Italy) with a cut-off of 250 g. Withdrawal thresholds were measured on both the ipsilateral paw (inflamed or ligated) and contralateral paw (uninflamed or unligated) 60 min after subcutaneous drug administration.

mice [2] = assay: Magnesium sulfate-evoked writhing test; conditions: for average ED50, magnesium sulfate-evoked writhing / number of writhing episodes evoked by magnesium sulfate: subcutaneous, Swiss mice; for average ED50, magnesium sulfate-evoked writhing: n=8; for number of writhing episodes evoked by magnesium sulfate: GW7647 1-30, Wy-14643 4-80, PEA 1-20 mg-kg^−1
Procedure: Mice received a single dose of magnesium sulfate (120 mg/kg, dissolved in 0.5 ml saline, i.p.) and subsequent writhing episodes were monitored for a period of 30 min thereafter. Drugs were administered in saline/Tween 80/polyethylenglycol, (90/5/5) subcutaneously, 30 minutes before magnesium sulfate.
Next, the effect of PPARα agonists on the nocifensive behavior elicited by intraperitoneal injection of magnesium sulfate in mice, a model of visceral pain (Calignano, et al, Eur J Pharmacol 419, 191-8. (2001)), was explored.
Writhing test. Magnesium sulfate was injected (120 mg-kg^−1 in 0.5 ml saline, i.p.) in 12-h food-deprived mice and measured writhing episodes for 30 min (Calignano, et al, Eur J Pharmacol 419, 191-8. (2001)). Drugs or vehicle were administered by subcutaneous injection 30 min before magnesium sulfate.

[3] = topical co-application, CD1 mice

Structure (SMILES) | anti-inflammatory activity on TPA-induced edema in PPARα−/− mice (mice [1]; PPARα−/− mice) | TPA-induced ear edema formation (mice [1]; [3]) | TPA-induced edema of abdominal skin (C57BL6/J mice) | mechanical sensitivity thresholds, carrageenan (Swiss mice) | paw oedema, carrageenan (Swiss mice) | average ED50, magnesium sulfate-evoked writhing (mice [2]) [mg/kg] | number of writhing episodes evoked by magnesium sulfate (mice [2]) | TPA-induced edema in wild-type and PPARα−/− mice (mice [1]; PEA 20 μg, C57Bl6J wild-type and PPARα−/− mice) | ED50, TPA-induced ear edema (mice [1]; topical co-application, CD1 mice, n=5) [μg per ear] | magnesium sulfate induced writhing in PPARα−/− mice (mice [2]; PPARα−/− mice, 20 mg-kg^−1 s.c.)
CC(C)(Sc1ccc(CCN(CCCCC2CCCCC2)C(=O)NC2CCCCC2)cc1)C(=O)O [GW7647] | residual, albeit weak anti-inflammatory activity | attenuated | attenuated TPA-induced edema | normalized mechanical sensitivity thresholds | no effect | 7.5 | dose-dependently decreased the number of writhing episodes |  |  | 
CCCCCCCCCCCCCCCC(=O)NCCO [PEA, palmitoylethanolamide] |  | attenuated | attenuated TPA-induced edema | normalized mechanical sensitivity thresholds | no effect | 9.9 | dose-dependently decreased the number of writhing episodes | effective only in wild-type animals | 8.9 | did not significantly modify
